Series [1] concerns Trypanosoma brucei rhodesiense (STIB 900 strain). Briefly: Alamar Blue assay against Trypanosoma brucei rhodesiense grown in axenic medium. To be noted: In vitro inhibition, read-out: T.b.rhod. Format: cell-based. As to the method:
(§1) Tests were done in triplicate.
Trypanosoma brucei rhodesiense (STIB 900) were grown in axenic medium as described by Baltz et al. (1985) The samples were tested using the Alamar Blue assay protocol (Baltz T et al. EMBO J 1985; 4:1273-1277) to determine the 50% inhibitory concentration (IC50). […] Melarsoprol (Arsobal®, Sanofi-Aventis, Switzerland) was used as a reference drug (IC50= 0.03 ± 0.01 µM). Its purity was over 95 %, as was certified by the supplier. The IC50 values were calculated by using Softmax Pro software (Molecular Devices Cooperation, Sunnyvale, CA).
On the technique in general: The colour change of resazurin is a common sign of viable cells or microbes.

Series [2] relates to Trypanosoma cruzi trypomastigote forms (Tulahuen strain). As to the kind of experiment: Intracellular Trypanosoma cruzi assay in L6-cells, beta-galactosidase/CPRG readout. Format: cell-based. To be noted: In vitro inhibition, read-out: T.cruzi. As to the method:
as §1
Trypanosoma cruzi trypomastigote forms (Tulahuen strain C2C4 containing β-galactosidase (Lac Z) gene) were cultured as described by Buckner et al. (Buckner FS et al. Antimicrob Agents Ch1996; 40: 2592-2597) in rat myoblast cells (L6-cells). […] After incubation, the substrate chlorophenyl red β-D-galactopyranoside agent CPRG/Nonident was added to all wells and a color change was developed within 2 to 6 h. The plates were read photometrically at 540 nm (Molecular Devices). Data were evaluated and IC50 values calculated using Softmax Pro software (Molecular Devices).

Series [3] is described as follows: Cytotoxicity assay on L6-cells (Alamar Blue). The note with it: rat, Cytotox L6, Cytotoxicity against rat myoblast cells (L6).
Series [4] deals with Axenically grown Leishmania donovani amastigotes (strain MHOM/ET/67/L82). Briefly: Axenic Leishmania donovani amastigote resazurin assay. Format: cell-based. To be noted: In vitro inhibition, read-out: L.don. ax. As to the method:
as §1
Axenically grown Leishmania donovani amastigotes (strain MHOM/ET/67/L82) were grown and tests were done as previously described using the resazurin assay (Räz B et al. Acta Tropica 1997, 68:139-147). The plates were developed for 2-4 hours and read on a Spectramax Gemini XS micro plate fluorometer (Molecular Devices Cooperation) using an excitation wavelength of 536 nm and emission wavelength of 588 nm. Fluorescence development was measured and expressed as percentage of the negative control. […] Data were transferred to the graphic programme Softmax Pro (Molecular Devices), with which IC50 values were calculated.

A further series concerns Plasmodium falciparum. As to the kind of experiment: 3H-hypoxanthine incorporation assay against Plasmodium falciparum. Format: cell-based. The note with it: In vitro inhibition, read-out: P.falc NF5. Here is the method: as §1
IC50 values were calculated by linear interpolation.

Drawing on patent EP3345917A1, “ANTIPROTOZOAL COMPOUNDS” (Bacoba AG, priority 2017, dated 2018), this text covers IC50 for eight molecules.

Non-standard residues stand in square brackets, D forms with d. Residues, ends and D or L forms follow the SMILES beside them. *: point of attachment. NH((S)CH(Me)CH2NMe2) = C[C@@H](CN(C)C)N*; Gly(octyl) = CCCCCCCC[C@H](N)C(=O)O; Oxazole4CO(2-Me) = Cc1nc(C(=O)*)co1; Hexanoyl = CCCCCC(=O)*; Aib = CC(C)(N)C(=O)O; X14 = O=C(c1cocn1)*; βAla = NCCC(=O)O; NHcPr = C1CC1N*

As for `CCCCCCCC[C@H](NC(=O)[C@@H]1CCCN1C(=O)CCCCC)C(=O)N[C@H](C(=O)N[C@@H](CC(C)C)C(=O)NC(C)(C)C(=O)NC(C)(C)C(=O)NCCC(=O)N[C@@H](C)CN(C)C)[C@@H](C)O` [Compound 5596, (2S)-N-[(1S,2R)-1-{[(1S)-1-{[1-({1-[(2-{[(2S)-1-(dimethylamino)propan-2-yl]carbamoyl}ethyl)carbamoyl]-1-methylethyl}carbamoyl)-1-methylethyl]carbamoyl}-3-methylbutyl]carbamoyl}-2-hydroxypropyl]-2-{[(2S)-1-hexanoylpyrrolidin-2-yl]formamido}decanamide] (Hexanoyl-P[Gly(octyl)]TL[Aib][Aib][βAla]-{NH((S)CH(Me)CH2NMe2)}), the IC50 in series [1] stood at 0.667 µM; in series [2] it was 7.74 µM; in series [4], 0.791 µM; in the series with Plasmodium falciparum, 1.24 µM. The same molecule came in with an IC50 at 70 h in series [3] of 5.03 µM.

For `CCCCCCCC[C@H](NC(=O)[C@@H]1CCCN1C(=O)CCCCC)C(=O)N[C@H](C(=O)N[C@@H](CC(C)C)C(=O)N[C@@H](CC(C)C)C(=O)NC(C)(C)C(=O)NC(C)(C)C(=O)NCCC(=O)N[C@@H](C)CN(C)C)[C@@H](C)O` [Compound 5598, (2S)-N-[(1S,2R)-1-{[(1S)-1-{[(1S)-1-{[1-({1-[(2-{[(2S)-1-(dimethylamino)propan-2-yl]carbamoyl}ethyl)carbamoyl]-1-methylethyl}carbamoyl)-1-methylethyl]carbamoyl}-3-methylbutyl]carbamoyl}-3-methylbutyl]carbamoyl}-2-hydroxypropyl]-2-{[(2S)-1-hexanoylpyrrolidin-2-yl]formamido}decanamide] (Hexanoyl-P[Gly(octyl)]TLL[Aib][Aib][βAla]-{NH((S)CH(Me)CH2NMe2)}), the IC50 amounted to 1.24 µM in series [1], 6.59 µM in series [2], 0.556 µM in series [4] and 2.13 µM in the series on Plasmodium falciparum. Besides, the IC50 at 70 h in series [3] is 3.78 µM.

Consider `CCCCCCCC[C@H](NC(=O)[C@@H]1CCCN1C(=O)CCCCC)C(=O)N[C@H](C(=O)N[C@@H](CC(C)C)C(=O)N[C@@H](CC(C)C)C(=O)NC(C)(C)C(=O)NCCC(=O)N[C@@H](C)CN(C)C)[C@@H](C)O` [Compound 5599, (2S)-N-[(1S,2R)-1-{[(1S)-1-{[(1S)-1-({1-[(2-{[(2S)-1-(dimethylamino)propan-2-yl]carbamoyl}ethyl)carbamoyl]-1-methylethyl}carbamoyl)-3-methylbutyl]carbamoyl}-3-methylbutyl]carbamoyl}-2-hydroxypropyl]-2-{[(2S)-1-hexanoylpyrrolidin-2-yl]formamido}decanamide] (Hexanoyl-P[Gly(octyl)]TLL[Aib][βAla]-{NH((S)CH(Me)CH2NMe2)}), for which the IC50 in series [1] was 1.94 µM; in series [2], 8.36 µM; in series [4], 4.81 µM; with Plasmodium falciparum, 3.5 µM. Moreover, in series [3], the IC50 at 70 h came to 6.95 µM.

With `CCCCCCCC[C@H](NC(=O)[C@H](C)NC(=O)CCCCC)C(=O)N[C@H](C(=O)NC(C)(C)C(=O)N[C@@H](CC(C)C)C(=O)N[C@@H](CC(C)C)C(=O)NC(C)(C)C(=O)NC(C)(C)C(=O)NCCC(=O)N[C@@H](C)CN(C)C)[C@@H](C)O` [Compound 5605, (2S)-N-[(1S,2R)-1-[(1-{[(1S)-1-{[(1S)-1-{[1-({1-[(2-{[(2S)-1-(dimethylamino)propan-2-yl]carbamoyl}ethyl)carbamoyl]-1-methylethyl}carbamoyl)-1-methylethyl]carbamoyl}-3-methylbutyl]carbamoyl}-3-methylbutyl]carbamoyl}-1-methylethyl)carbamoyl]-2-hydroxypropyl]-2-[(2S)-2-hexanamidopropanamido]decanamide] (Hexanoyl-A[Gly(octyl)]T[Aib]LL[Aib][Aib][βAla]-{NH((S)CH(Me)CH2NMe2)}), the IC50 turned out to be 0.0228 µM in series [1], 1.84 µM in series [2], 0.0786 µM in series [4] and 0.0393 µM with Plasmodium falciparum. The molecule further gave an IC50 at 70 h in series [3] of 2.48 µM.

As for `CCCCCCCC[C@H](NC(=O)c1cocn1)C(=O)N[C@H](C(=O)NC(C)(C)C(=O)N[C@@H](CC(C)C)C(=O)N[C@@H](CC(C)C)C(=O)NC(C)(C)C(=O)NC(C)(C)C(=O)NCCC(=O)N[C@@H](C)CN(C)C)[C@@H](C)O` [Compound 5639, (2S)-N-[(1S,2R)-1-[(1-{[(1S)-1-{[(1S)-1-{[1-({1-[(2-{[(2S)-1-(dimethylamino)propan-2-yl]carbamoyl}ethyl)carbamoyl]-1-methylethyl}carbamoyl)-1-methylethyl]carbamoyl}-3-methylbutyl]carbamoyl}-3-methylbutyl]carbamoyl}-1-methylethyl)carbamoyl]-2-hydroxypropyl]-2-[(1,3-oxazol-4-yl)formamido]decanamide] (X14-[Gly(octyl)]T[Aib]LL[Aib][Aib][βAla]-{NH((S)CH(Me)CH2NMe2)}), the IC50 in series [1] was 0.0225 µM; in series [2], 5.36 µM; in series [4], 0.539 µM; in the series on Plasmodium falciparum, 0.244 µM. The molecule further showed an IC50 at 70 h in series [3] of 1.64 µM.

`CCCCCCCC[C@H](NC(=O)c1coc(C)n1)C(=O)N[C@H](C(=O)NC(C)(C)C(=O)N[C@@H](CC(C)C)C(=O)N[C@@H](CC(C)C)C(=O)NC(C)(C)C(=O)NC(C)(C)C(=O)NCCC(=O)N[C@@H](C)CN(C)C)[C@@H](C)O` [Compound 5640, (2S)-N-[(1S,2R)-1-[(1-{[(1S)-1-{[(1S)-1-{[1-({1-[(2-{[(2S)-1-(dimethylamino)propan-2-yl]carbamoyl}ethyl)carbamoyl]-1-methylethyl}carbamoyl)-1-methylethyl]carbamoyl}-3-methylbutyl]carbamoyl}-3-methylbutyl]carbamoyl}-1-methylethyl)carbamoyl]-2-hydroxypropyl]-2-[(2-methyl-1,3-oxazol-4-yl)formamido]decanamide] ({Oxazole4CO(2-Me)}-[Gly(octyl)]T[Aib]LL[Aib][Aib][βAla]-{NH((S)CH(Me)CH2NMe2)}): the IC50 was 0.0053 µM in series [1], 3.74 µM in series [2], 0.193 µM in series [4] and 0.0856 µM in the series on Plasmodium falciparum. For the same molecule, the IC50 at 70 h in series [3] was 4.44 µM.

`CCCCCCCC[C@H](NC(=O)[C@@H]1CCCN1C(=O)CCCCC)C(=O)N[C@@H](CC(C)C)C(=O)NC(C)(C)C(=O)N[C@@H](CC(C)C)C(=O)N[C@@H](CC(C)C)C(=O)NC(C)(C)C(=O)NC(C)(C)C(=O)NCCC(=O)NC1CC1` [Compound 5645, (2S)-N-[(1S)-1-[(1-{[(1S)-1-{[(1S)-1-({1-[(1-{[2-(cyclopropylcarbamoyl)ethyl]carbamoyl}-1-methylethyl)carbamoyl]-1-methylethyl}carbamoyl)-3-methylbutyl]carbamoyl}-3-methylbutyl]carbamoyl}-1-methylethyl)carbamoyl]-3-methylbutyl]-2-{[(2S)-1-hexanoylpyrrolidin-2-yl]formamido}decanamide] (Hexanoyl-P[Gly(octyl)]L[Aib]LL[Aib][Aib][βAla]-NHcPr): the IC50 in series [1] is 0.537 µM; in series [2] it was 4.24 µM; in series [4] it was 0.168 µM; with Plasmodium falciparum, 0.0138 µM. In series [3], the IC50 at 70 h came out at 1.23 µM.

For the molecule `CCCCCC(=O)N1CCC[C@H]1C(=O)N[C@@H](CCCCNC(C)=O)C(=O)N[C@@H](CC(C)C)C(=O)NC(C)(C)C(=O)N[C@@H](CC(C)C)C(=O)N[C@@H](CC(C)C)C(=O)NC(C)(C)C(=O)NC(C)(C)C(=O)NCCC(=O)N[C@@H](C)CN(C)C` [Compound 5766, (2S)-N-[(1S)-1-[(1-{[(1S)-1-{[(1S)-1-{[1-({1-[(2-{[(2S)-1-(dimethylamino)propan-2-yl]carbamoyl}ethyl)carbamoyl]-1-methylethyl}carbamoyl)-1-methylethyl]carbamoyl}-3-methylbutyl]carbamoyl}-3-methylbutyl]carbamoyl}-1-methylethyl)carbamoyl]-3-methylbutyl]-6-acetamido-2-{[(2S)-1-hexanoylpyrrolidin-2-yl]formamido}hexanamide] (Hexanoyl-PK(Ac)L[Aib]LL[Aib][Aib][βAla]-{NH((S)CH(Me)CH2NMe2)}), the IC50 was determined as 0.003 µM in series [1], 3.78 µM in series [2], 0.752 µM in series [4] and 0.135 µM with Plasmodium falciparum. In series [3], this molecule had an IC50 at 70 h of 4.87 µM.
